Experiments:
ESCs [SHEF1] = test: Flow cytometry of the DE marker CXCR4; assay type: cell-based, human; conditions: 2 μM 1M, 100 ng/ml Activin A, alone or in combination, 5 days
Description: (A) RNA was extracted from ESCs [SHEF1] cultured for 7 days in the presence of 2 μM 1M for the days indicated. RT-PCR analyses were performed using primers selective for the genes indicated. (B) ESCs [SHEF1] were treated with 2 μM 1M alone or in combination with 10 μM SB43125 (S) for the days indicated and RT-PCR performed on the extracted RNA. (C) ESCs [SHEF3] were treated with 1M alone or in combination with 100 ng/ml Activin A (A) for the days indicated and RT-PCR performed. (D). ESCs [SHEF1] were treated with 2 μM 1M, or 100 ng/ml ActivinA (A) alone or in combination with 1M for 5 days. Expression of the endoderm markers FoxA2 and HNF4α was analysed by immunofluorescence. The number of percent positive cells averaged from 3 fields of view +/−SD are indicated. Scale bar represents 50 μm. (E) ESCs [SHEF1] were treated with 2 μM 1M, or 100 ng/ml ActivinA (A) alone or in combination with 1M for 5 days. Expression of the DE marker CXCR4 was alaysed by flow cytometry.
ESCs were trypsinised (0.05% Trypsin-EDTA) for 10 minutes at 37° C. and resuspended in PBS containing 2% (v/v) FBS (FBS/PBS). […] Flow cytometry was performed using a FACSCanto cytometer (Becton Dickenson) and the data were analysed with FACSDiva software. […]

GSK-3 = test: Phospho-β-catenin immunoblot and TOPFlash luciferase reporter assay in human ESCs; assay type: cell-based; conditions: 30 min (immunoblot) or 24 hr (TOPFlash)
Description: (A) ESCs [SHEF3] were cultured on MEFs or on Matrigel® in mTeSR1® media and treated with BIO or 1M for 30 min. Protein extracts were prepared and immunoblotting was performed using antibodies detecting the phosphorylated form of […]. The same immunoblot in each case was reprobed for total β-catenin to assess loading. (B) TOPFlash luciferase reporter assay of ESCs [SHEF1] treated for 24 hr with BIO or 1M at the indicated concentrations. Luciferase activity is expressed as a fold increase in activation compared with the normalised TOPFlash luciferase activity in untreated (Con) cells. Data represent the mean+/−SEM of 3 independent experiments.
Cell lysates (20 μg) were prepared, separated by SDS-PAGE and transferred to nitrocellulose as described previously (Welham et al., 1994). […] Images were captured and analysed using the ImageQuant RT ECL system (GE Healthcare). […]
The TOPFlash luciferase reporter plasmid (containing four consensus TCF binding sites upstream of the c-fos minimal promoter, driving expression of a firefly luciferase reporter) and its negative control plasmid FOPFlash (containing four mutant TCF binding sites) were provided by Dr C. […] Cell extracts were prepared and firefly and Renilla luciferase activities were determined using the dual-luciferase reporter assay system according to the manufacturer's instructions (Promega). […]

SMILES: O=C1NC(=O)C2=C1c1cn(c3ccccc13)CCOCCOCCOCCOCCn1cc2c2ccccc21 [1M]
- CXCR4 expression by flow cytometry (ESCs [SHEF1]): 53.0%
- GSK-3-mediated signaling (β-catenin phosphorylation, TOPFlash activity) (GSK-3): inhibits GSK-3-mediated signaling

From patent publication US8815590B2, “Composition and method for differentiation of human embryonic stem cells” (Stem Cells for Safer Medicines Limited, priority 2009, dated 2014)
